The assay has as its system VA-ES-BJ. The assay is described as follows: relative viability vs DMSO control (72 h) (fraction); higher = more viable cells. The method, boiled down: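 Percent growth from ATPLite readings, averaged over up to triplicate wells, was used as relative viability. Sarcoma cell lines were seeded into 384-well plates for 80–90% confluence, dosed after 24 h, and kept 72 h at 37 °C, 5% CO2. Data were rescaled to a range where 1 is full and 0 is none.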

Molecules are shown by their SMILES. ± gives the standard deviation of the averaged measurements.

On to `Cc1cc(C)c(/C=C2\C(=O)Nc3ccccc32)[nH]1` [Semaxanib], for which the relative viability reads like this: (0.00017 µM) 0.973 ± 0.027; (0.00051 µM) 0.969 ± 0.045; (0.00152 µM) 0.969 ± 0.039; (0.00457 µM) 0.97 ± 0.023; (0.01372 µM) 0.948 ± 0.016; (0.04115 µM) 0.914 ± 0.014. The relative viability is 0.922 ± 0.021 (0.1235 µM); 0.901 ± 0.048 (0.3704 µM); 0.889 ± 0.043 (1.111 µM); 0.902 ± 0.016 (3.333 µM); 0.855 ± 0.078 (10 µM).

`CC1(C)CNc2cc(NC(=O)c3cccnc3NCc3ccncc3)ccc21` [Motesanib] registered a relative viability (0.00017 µM) of 0.98 ± 0.021; a relative viability (0.00051 µM) of 0.982 ± 0.018; a relative viability (0.00152 µM) of 0.976 ± 0.041; a relative viability (0.00457 µM) of 1 ± 0.03; a relative viability (0.01372 µM) of 0.9877 ± 0.0081; a relative viability (0.04115 µM) of 1 ± 0.017. The relative viability runs as follows: (0.1235 µM) 1.011 ± 0.0069; (0.3704 µM) 1.02 ± 0.022; (1.111 µM) 1.04 ± 0.042; (3.333 µM) 1.04 ± 0.024; (10 µM) 1.03 ± 0.029.

`CNC(=O)c1ccc(-c2cnc3ncc(Cc4ccc5ncccc5c4)n3n2)cc1F` [Capmatinib]: the relative viability was found to be 1.06 ± 0.068 (0.00017 µM); 1.03 ± 0.042 (0.00051 µM); 1.01 ± 0.062 (0.00152 µM); 0.943 ± 0.04 (0.00457 µM); 0.87 ± 0.016 (0.01372 µM); 0.844 ± 0.03 (0.04115 µM). Moreover, the relative viability is, setting by setting: (0.1235 µM) 0.839 ± 0.01; (0.3704 µM) 0.844 ± 0.017; (1.111 µM) 0.878 ± 0.059; (3.333 µM) 0.88 ± 0.035; (10 µM) 0.855 ± 0.036.

On to `CC(C)N1CCN(Cc2cnc(-c3cc(-c4cccc5[nH]ccc45)cc4[nH]ncc34)o2)CC1` [Nemiralisib], for which the relative viability was 0.985 ± 0.032 (0.00017 µM); 0.987 ± 0.045 (0.00051 µM); 0.981 ± 0.047 (0.00152 µM); 1.01 ± 0.04 (0.00457 µM); 0.96 ± 0.026 (0.01372 µM); 0.965 ± 0.041 (0.04115 µM). For the same compound, the relative viability by setting is: (0.1235 µM) 0.982 ± 0.038; (0.3704 µM) 0.9285 ± 0.0062; (1.111 µM) 0.901 ± 0.049; (3.333 µM) 0.811 ± 0.017; (10 µM) 0.655 ± 0.038.

With `CO[C@H]1C[C@@H]2CC[C@@H](C)[C@@](O)(O2)C(=O)C(=O)N2CCCC[C@H]2C(=O)O[C@H]([C@H](C)C[C@@H]2CC[C@@H](OP(C)(C)=O)[C@H](OC)C2)CC(=O)[C@H](C)/C=C(\C)[C@@H](O)[C@@H](OC)C(=O)[C@H](C)C[C@H](C)/C=C/C=C/C=C/1C` [Ridaforolimus], the relative viability by setting is: (0.00017 µM) 0.97 ± 0.051; (0.00051 µM) 0.889 ± 0.031; (0.00152 µM) 0.664 ± 0.016; (0.00457 µM) 0.602 ± 0.03; (0.01372 µM) 0.538 ± 0.018; (0.04115 µM) 0.509 ± 0.025. Besides, the relative viability by setting is: (0.1235 µM) 0.487 ± 0.03; (0.3704 µM) 0.459 ± 0.0073; (1.111 µM) 0.48 ± 0.014; (3.333 µM) 0.458 ± 0.026; (10 µM) 0.45 ± 0.0084.

Take `Nc1cc(C(F)(F)F)c(-c2cc(N3CCOCC3)nc(N3CCOCC3)n2)cn1` [Buparlisib]: the relative viability by setting is: (0.00017 µM) 1.01 ± 0.043; (0.00051 µM) 1 ± 0.053; (0.00152 µM) 0.999 ± 0.027; (0.00457 µM) 1.01 ± 0.032; (0.01372 µM) 0.997 ± 0.035; (0.04115 µM) 0.983 ± 0.055. Also, the relative viability reads like this: (0.1235 µM) 0.875 ± 0.058; (0.3704 µM) 0.663 ± 0.018; (1.111 µM) 0.316 ± 0.0056; (3.333 µM) 0.189 ± 0.0041; (10 µM) 0.1818 ± 0.0013.

With `Cc1ccc(F)c(NC(=O)Nc2ccc(-c3cccc4[nH]nc(N)c34)cc2)c1` [Linifanib], the relative viability turned out to be 1.05 ± 0.022 (0.00017 µM); 1.07 ± 0.041 (0.00051 µM); 1.06 ± 0.03 (0.00152 µM); 1.07 ± 0.056 (0.00457 µM); 1.05 ± 0.025 (0.01372 µM); 1.08 ± 0.059 (0.04115 µM). Moreover, the relative viability stood at 1.07 ± 0.046 (0.1235 µM); 1.06 ± 0.056 (0.3704 µM); 1.11 ± 0.063 (1.111 µM); 1.11 ± 0.035 (3.333 µM); 1.03 ± 0.047 (10 µM).

Consider `N#CC[C@H](C1CCCC1)n1cc(-c2ncnc3[nH]ccc23)cn1` [Ruxolitinib], for which the relative viability by setting is: (0.00017 µM) 1.03 ± 0.03; (0.00051 µM) 1.05 ± 0.026; (0.00152 µM) 1.002 ± 0.01; (0.00457 µM) 1.006 ± 0.0095; (0.01372 µM) 1.02 ± 0.014; (0.04115 µM) 1.03 ± 0.024. Further, the relative viability reads like this: (0.1235 µM) 0.987 ± 0.014; (0.3704 µM) 0.985 ± 0.025; (1.111 µM) 0.969 ± 0.015; (3.333 µM) 1 ± 0.03; (10 µM) 0.8995 ± 0.0059.

With `C=CC(=O)Nc1cccc(Oc2nc(Nc3ccc(N4CCN(C)CC4)cc3)nc3ccsc23)c1` [Olmutinib], the relative viability runs as follows: (0.00017 µM) 1.01 ± 0.052; (0.00051 µM) 1.01 ± 0.029; (0.00152 µM) 1.01 ± 0.029; (0.00457 µM) 1.01 ± 0.027; (0.01372 µM) 1.02 ± 0.043; (0.04115 µM) 1 ± 0.039. Further, the relative viability is, setting by setting: (0.1235 µM) 0.996 ± 0.052; (0.3704 µM) 0.96 ± 0.065; (1.111 µM) 0.905 ± 0.06; (3.333 µM) 0.786 ± 0.038; (10 µM) 0.534 ± 0.013.
